# Data published in patent USRE47141E1, “Methods of treating fibrosis, cancer and vascular injuries” (EWHA University—Industry Collaboration Foundation, priority 2010, dated 2018).
# Target: ALK5 (Homo sapiens (Human), UniProt P36897)
# Experiment: Cell-free assay for inhibition of ALK5 kinase phosphorylation
# Format: biochemical
# Conditions: not given
# ALK5, sequence (P36897 34-503): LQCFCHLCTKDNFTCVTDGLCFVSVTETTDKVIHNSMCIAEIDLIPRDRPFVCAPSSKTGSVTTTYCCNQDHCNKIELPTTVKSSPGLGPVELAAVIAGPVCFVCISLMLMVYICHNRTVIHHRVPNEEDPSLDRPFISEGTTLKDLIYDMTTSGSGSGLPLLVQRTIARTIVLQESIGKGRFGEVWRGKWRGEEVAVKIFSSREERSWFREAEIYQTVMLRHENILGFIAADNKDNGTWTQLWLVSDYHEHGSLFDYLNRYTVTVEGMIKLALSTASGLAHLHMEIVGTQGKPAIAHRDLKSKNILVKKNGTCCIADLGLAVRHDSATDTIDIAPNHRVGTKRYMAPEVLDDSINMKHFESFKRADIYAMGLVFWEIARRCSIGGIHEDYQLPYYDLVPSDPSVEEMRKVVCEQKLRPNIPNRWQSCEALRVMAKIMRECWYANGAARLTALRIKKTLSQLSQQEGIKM
row,SMILES,IC50 [µM]
1,"Cc1cccc(-c2[nH]c(CNc3ccccc3C#N)nc2-c2ccc3ncnn3c2)n1 [Example 59, 2-((4-([1,2,4]triazolo[1,5-a]pyridin-6-yl)-5-(6-methylpyridin-2-yl)-1H-imidazol-2-yl)methylamino)benzonitrile]",0.0195

# Same assay, conditions: read-out: IC50 on ALK5 kinase phosphorylation
row,SMILES,IC50 [µM]
1,"COCc1ccccc1NCc1nc(-c2ccc3ncnn3c2)c(-c2cccc(C)n2)[nH]1 [Example 48, N-((4-([1,2,4]triazolo[1,5-a]pyridin-6-yl)-5-(6-methylpyridin-2-yl)-1H-imidazol-2-yl)methyl)-2-(methoxymethyl)aniline]",0.0241
2,"COCc1cccc(NCc2nc(-c3ccc4ncnn4c3)c(-c3cccc(C)n3)[nH]2)c1 [Example 49, N-((4-([1,2,4]triazolo[1,5-a]pyridin-6-yl)-5-(6-methylpyridin-2-yl)-1H-imidazol-2-yl)methyl)-3-(methoxymethyl)aniline]",0.0153
3,"CSc1ccccc1NCc1nc(-c2ccc3ncnn3c2)c(-c2cccc(C)n2)[nH]1 [Example 54, N-((4-([1,2,4]triazolo[1,5-a]pyridin-6-yl)-5-(6-methylpyridin-2-yl)-1H-imidazol-2-yl)methyl)-2-(methylthio)aniline]",0.00993
4,"Cc1cccc(-c2[nH]c(CNc3cccc(C#N)c3)nc2-c2ccc3ncnn3c2)n1 [Example 60, 3-((4-([1,2,4]triazolo[1,5-a]pyridin-6-yl)-5-(6-methylpyridin-2-yl)-1H-imidazol-2-yl)methylamino)benzonitrile]",0.00483
5,"Cc1cccc(-c2[nH]c(CNc3cccc(C#N)c3C#N)nc2-c2ccc3ncnn3c2)n1 [Example 64, 3-((4-([1,2,4]triazolo[1,5-a]pyridin-6-yl)-5-(6-methylpyridin-2-yl)-1H-imidazol-2-yl)methylamino)phthalonitrile]",0.0206
6,"Cc1cccc(-c2[nH]c(CNc3ccccc3C(N)=O)nc2-c2ccc3ncnn3c2)n1 [Example 65, 2-((4-([1,2,4]triazolo[1,5-a]pyridin-6-yl)-5-(6-methylpyridin-2-yl)-1H-imidazol-2-yl)methylamino)benzamide]",0.0297
7,"Cc1cccc(-c2[nH]c(CNc3cccc(C(N)=O)c3)nc2-c2ccc3ncnn3c2)n1 [Example 66, 3-((4-([1,2,4]triazolo[1,5-a]pyridin-6-yl)-5-(6-methylpyridin-2-yl)-1H-imidazol-2-yl)methylamino)benzamide]",0.00914
8,"Cc1cccc(-c2[nH]c(CNc3cccc(CC#N)c3)nc2-c2ccc3ncnn3c2)n1 [Example 68, 2-(3-((4-([1,2,4]triazolo[1,5-a]pyridin-6-yl)-5-(6-methylpyridin-2-yl)-1H-imidazol-2-yl)methylamino)phenyl)acetonitrile]",0.011
9,"CC(=O)c1cccc(NCc2nc(-c3ccc4ncnn4c3)c(-c3cccc(C)n3)[nH]2)c1 [Example 70, 1-(3-((4-([1,2,4]triazolo[1,5-a]pyridin-6-yl)-5-(6-methylpyridin-2-yl)-1H-imidazol-2-yl)methylamino)phenyl)ethanone]",0.0128
10,"COC(=O)c1cccc(NCc2nc(-c3ccc4ncnn4c3)c(-c3cccc(C)n3)[nH]2)c1 [Example 72, Methyl 3-((4-([1,2,4]triazolo[1,5-a]pyridin-6-yl)-5-(6-methylpyridin-2-yl)-1H-imidazol-2-yl)methylamino)benzoate]",0.0166
11,"CC(=O)Nc1ccccc1NCc1nc(-c2ccc3ncnn3c2)c(-c2cccc(C)n2)[nH]1 [Example 74, N-(2-((4-([1,2,4]triazolo[1,5-a]pyridin-6-yl)-5-(6-methylpyridin-2-yl)-1H-imidazol-2-yl)methylamino)phenyl)acetamide]",0.0395
12,"CC(=O)Nc1cccc(NCc2nc(-c3ccc4ncnn4c3)c(-c3cccc(C)n3)[nH]2)c1 [Example 75, N-(3-((4-([1,2,4]triazolo[1,5-a]pyridin-6-yl)-5-(6-methylpyridin-2-yl)-1H-imidazol-2-yl)methylamino)phenyl)acetamide]",0.0154
13,"Cc1cccc(-c2[nH]c(CNc3ccccc3NS(C)(=O)=O)nc2-c2ccc3ncnn3c2)n1 [Example 77, N-(2-((4-([1,2,4]triazolo[1,5-a]pyridin-6-yl)-5-(6-methylpyridin-2-yl)-1H-imidazol-2-yl)methylamino)phenyl)methanesulfonamide]",0.0153
14,"Cc1cccc(-c2[nH]c(CNc3cccc(NS(C)(=O)=O)c3)nc2-c2ccc3ncnn3c2)n1 [Example 78, N-(3-((4-([1,2,4]triazolo[1,5-a]pyridin-6-yl)-5-(6-methylpyridin-2-yl)-1H-imidazol-2-yl)methylamino)phenyl)methanesulfonamide]",0.0151
15,"CCc1cccc(-c2[nH]c(CNc3cccc(C#N)c3)nc2-c2ccc3ncnn3c2)n1 [Example 138, 3-((4-([1,2,4]triazolo[1,5-a]pyridin-6-yl)-5-(6-ethylpyridin-2-yl)-1H-imidazol-2-yl)methylamino)benzonitrile]",0.0094
16,"CCc1cccc(-c2[nH]c(CNc3ccccc3F)nc2-c2ccc3ncnn3c2)n1 [Example 139, N-((4-([1,2,4]triazolo[1,5-a]pyridin-6-yl)-5-(6-ethylpyridin-2-yl)-1H-imidazol-2-yl)methyl)-2-fluoroaniline]",0.0232
17,"Cc1cccc(-c2[nH]c(CN(C)c3ccccc3F)nc2-c2ccc3ncnn3c2)n1 [Example 140, N-((4-([1,2,4]triazolo[1,5-a]pyridin-6-yl)-5-(6-methylpyridin-2-yl)-1H-imidazol-2-yl)methyl)-2-fluoro-N-methylaniline]",0.0498
18,Cc1cccc(-c2[nH]c(CN(C)c3cccc(C#N)c3)nc2-c2ccc3ncnn3c2)n1 [Example 141],0.118
19,Cc1cccc(-c2[nH]c(CN(C)c3cccc(C(N)=O)c3)nc2-c2ccc3ncnn3c2)n1 [Example 142],0.153
20,"Cc1cccc(-c2[nH]c(Cc3ccccc3)nc2-c2ccc3ncnn3c2)n1 [Example 143, 6-(2-benzyl-5-(6-methylpyridin-2-yl)-1H-imidazol-4-yl)-[1,2,4]triazolo[1,5-a]pyridine]",0.0198
21,"Cc1cccc(-c2[nH]c(Cc3ccccc3F)nc2-c2ccc3ncnn3c2)n1 [Example 144, 6-(2-(2-fluorobenzyl)-5-(6-methylpyridin-2-yl)-1H-imidazol-4-yl)-[1,2,4]triazolo[1,5-a]pyridine]",0.0251

# Further lines, results first:
row,IC50 [µM],SMILES
1,0.0507,"COCc1ccc(NCc2nc(-c3ccc4ncnn4c3)c(-c3cccc(C)n3)[nH]2)cc1 [Example 50, N-((4-([1,2,4]triazolo[1,5-a]pyridin-6-yl)-5-(6-methylpyridin-2-yl)-1H-imidazol-2-yl)methyl)-4-(methoxymethyl)aniline]"
2,0.0123,"Cc1cccc(-c2[nH]c(CNc3ccccc3OC(F)(F)F)nc2-c2ccc3ncnn3c2)n1 [Example 51, N-((4-([1,2,4]triazolo[1,5-a]pyridin-6-yl)-5-(6-methylpyridin-2-yl)-1H-imidazol-2-yl)methyl)-2-(trifluoromethoxy)aniline]"
3,0.0234,"Cc1cccc(-c2[nH]c(CNc3cccc(OC(F)(F)F)c3)nc2-c2ccc3ncnn3c2)n1 [Example 52, N-((4-([1,2,4]triazolo[1,5-a]pyridin-6-yl)-5-(6-methylpyridin-2-yl)-1H-imidazol-2-yl)methyl)-3-(trifluoromethoxy)aniline]"
4,0.0601,"Cc1cccc(-c2[nH]c(CNc3ccc(OC(F)(F)F)cc3)nc2-c2ccc3ncnn3c2)n1 [Example 53, N-((4-([1,2,4]triazolo[1,5-a]pyridin-6-yl)-5-(6-methylpyridin-2-yl)-1H-imidazol-2-yl)methyl)-4-(trifluoromethoxy)aniline]"
5,0.0067,"CSc1cccc(NCc2nc(-c3ccc4ncnn4c3)c(-c3cccc(C)n3)[nH]2)c1 [Example 55, N-((4-([1,2,4]triazolo[1,5-a]pyridin-6-yl)-5-(6-methylpyridin-2-yl)-1H-imidazol-2-yl)methyl)-3-(methylthio)aniline]"
6,0.0396,"CSc1ccc(NCc2nc(-c3ccc4ncnn4c3)c(-c3cccc(C)n3)[nH]2)cc1 [Example 58, N-((4-([1,2,4]triazolo[1,5-a]pyridin-6-yl)-5-(6-methylpyridin-2-yl)-1H-imidazol-2-yl)methyl)-4-(methylthio)aniline]"
7,0.0321,"Cc1cccc(-c2[nH]c(CNc3ccc(C#N)cc3)nc2-c2ccc3ncnn3c2)n1 [Example 63, 4-((4-([1,2,4]triazolo[1,5-a]pyridin-6-yl)-5-(6-methylpyridin-2-yl)-1H-imidazol-2-yl)methylamino)benzonitrile]"
8,0.0546,"Cc1cccc(-c2[nH]c(CNc3ccc(C(N)=O)cc3)nc2-c2ccc3ncnn3c2)n1 [Example 67, 4-((4-([1,2,4]triazolo[1,5-a]pyridin-6-yl)-5-(6-methylpyridin-2-yl)-1H-imidazol-2-yl)methylamino)benzamide]"
9,0.0245,"Cc1cccc(-c2[nH]c(CNc3ccc(CC#N)cc3)nc2-c2ccc3ncnn3c2)n1 [Example 69, 2-(4-((4-([1,2,4]triazolo[1,5-a]pyridin-6-yl)-5-(6-methylpyridin-2-yl)-1H-imidazol-2-yl)methylamino)phenyl)acetonitrile]"
10,0.0591,"CC(=O)c1ccc(NCc2nc(-c3ccc4ncnn4c3)c(-c3cccc(C)n3)[nH]2)cc1 [Example 71, 1-(4-((4-([1,2,4]triazolo[1,5-a]pyridin-6-yl)-5-(6-methylpyridin-2-yl)-1H-imidazol-2-yl)methylamino)phenyl)ethanone]"
11,0.078,"COC(=O)c1ccc(NCc2nc(-c3ccc4ncnn4c3)c(-c3cccc(C)n3)[nH]2)cc1 [Example 73, Methyl 4-((4-([1,2,4]triazolo[1,5-a]pyridin-6-yl)-5-(6-methylpyridin-2-yl)-1H-imidazol-2-yl)methylamino)benzoate]"
12,0.039,"CC(=O)Nc1ccc(NCc2nc(-c3ccc4ncnn4c3)c(-c3cccc(C)n3)[nH]2)cc1 [Example 76, N-(4-((4-([1,2,4]triazolo[1,5-a]pyridin-6-yl)-5-(6-methylpyridin-2-yl)-1H-imidazol-2-yl)methylamino)phenyl)acetamide]"
13,0.0466,"Cc1cccc(-c2[nH]c(CNc3ccc(NS(C)(=O)=O)cc3)nc2-c2ccc3ncnn3c2)n1 [Example 79, N-(4-((4-([1,2,4]triazolo[1,5-c]pyridin-6-yl)-5-(6-methylpyridin-2-yl)-1H-imidazol-2-yl)methylamino)phenyl)methanesulfonamide]"
